From patent EP0217372A2, “Polyoxygenated labdane derivatives, process for their preparation and their use as medicaments” (HOECHST AKTIENGESELLSCHAFT, priority 1985, dated 1987)
In brackets after ≈: the same amount, converted by molar mass. Where two headings read alike, the source gives them in different places.

Assays:
Meerschweinchen-Vorhof = assay: Electrically stimulated left atrium, contractile force; conditions: contractile force of electrically stimulated left atrium, recorded 7 to 10 min
Source text: 2. Elektrisch stimulierter linker Vorhof
Es wird ein Meerschweinchen männlichen oder weiblichen Geschlechts mit einem Gewicht von 400 g getötet, das Herz entnommen und bei Zimmertemperatur in Ringerlösung eingebracht. Dann wird der linke Vorhof isoliert, an einem Organhalter befestigt und das Präparat in ein Organbad mit Ringerlösung von Zimmertemperatur gebracht. In das Organbad wird ein lebhafter Strom eines Gemisches von Kohlendioxid und Sauerstoff (95 % 02 und 5 % C02) geleitet. Dann wird der linke Vorhof elektrisch stimuliert. Anschließend wird aus einer der erfindungsgemäßen Verbindungen oder ih- rem Salz gegebenenfalls unter Verwendung von stöchiometrischer wäßriger 0,1 n HC1-Lösung eine wäßrige Lösung bekannter Konzentrationen hergestellt.
Diese Lösung wird dem Bad zugesetzt und die Kontraktionskraft des Vorhofes 7 bis 10 Minuten lang auf einem 4-Kanal-Kohden-Rekorder registriert. Die Wirkung wird aus den ermittelten Daten als EC50 berechnet angegeben.

[1] = tested on: Isoliertes Meerschweinchenherz; assay: Isolated guinea pig heart (Langendorff method); set-up: species or system Meerschweinchen; conditions: Cavia porcellus; for activation at 0.01 mg: Dosis 10 µg injected into the aorta; for activation at 0.03 mg: Dosis 30 µg injected into the aorta
Source text: 1. Isoliertes Meerschweinchenherz (Langendorff-Methode)
Es wird ein Meerschweinchen männlichen oder weiblichen Geschlechts mit einem Gewicht zwischen 300 und 400 g getötet und das Herz mit einem kleinen Teil der Aorta entnommen. Das Herz wird umgehend in einen Perfusionsapparat gebracht, in dem die Aorta auf der Glaskanüle fixiert wird. Die aus oxygenierter Ringerlösung bestehende Perfusionslösung wird bei konstantem Druck aus dem Behälter zugeführt, der durch aus dem Thermostat zirkulierendes Wasser auf 37°C angewärmt wird. Die zu untersuchenden Verbindungen der Erfindung werden zur Herstellung einer Lösung mit bekannter Konzentration unter Verwendung stöchiometrischer 0,1 n HC1 bzw. deren Salze direkt in Wasser gelöst. Die erhaltene Lösung wird durch eine Polyäthylenkanüle direkt in die Aorta injiziert und die Wirkungen auf die Kontraktionskraft, Herzfrequenz und Koronardurchblutung auf einem 3-Kanal-Physioscribe-Rekorder aufgezeichnet. Die prozentuale Zu- oder Abnahme der inotropen Wirkung wird nach dem intialen Ausgangswert berechnet.

Narkotisierter Hund = assay: In vivo test in the anaesthetised dog (left ventricular dp/dt max); set-up: species or system Beagle-Hunde; conditions: Canis lupus familiaris, iv; injected into the femoral vein, pentobarbital anaesthesia
Experimental: 3. In vivo-Tests am narkotisierten Hund
Beagle-Hunde beiderlei Geschlechts mit einem Gewicht zwischen 10 und 15 kg werden mit Na-Pentobarbitol (35 mg/kg, i.v.) narkotisiert. Nach Einführen eines Endotrachealtubus werden die Femoralarterie und -vene mit einer Kanüle zur Messung des Blutdrucks bzw. zur Verabreichung von Medikamenten versehen. Der Druck des linken Ventrikels wird mit Hilfe eines Millar-Katheters gemessen und dp/dt max wird berechnet mit einem Hugo-Sachs-Differentiometer. Die Herzfrequenz wird mit Hilfe eines Kardiotachometers aus ECG-Signalen bestimmt. Alle kontinuierlich gemessenen Parameter werden mit einem Hellige-Sechs-Kanal-Recorder aufgezeichnet.
Die zu untersuchenden erfindungsgemäßen Verbindungen werden in destilliertem Wasser gelöst. In allen Experimenten werden 1%ige Lösungen verwendet. Die Lösungen werden in die Femoralvene injiziert und die Dosis-Wirkung-Relation berechnet.

[2] = read-out: % Zunahme der Chronotropen Wirkung
[3] = read-out: % Zunahme der Koronardurchblutung
[4] = relative to initial baseline, read-out: % Zunahme der Inotropen Wirkung

Row | EC50 (Meerschweinchen-Vorhof) [µg/mL] | Compound | activation at 0.01 mg [1, 2] [%] | activation at 0.01 mg [1, 3] [%] | activation at 0.01 mg [1, 4] [%] | also measured
1 | 2.3 (≈ 4.66 µM) | C=C[C@@]1(C)CC(=O)[C@]2(O)[C@@]3(C)[C@@H](O)CCC(C)(C)[C@@H]3[C@H](OC(=O)CN3CCCCC3)[C@H](O)[C@@]2(C)O1 | 27 | 40 | 32 | –
2 | 4.7 (≈ 9.22 µM) | C=C[C@@]1(C)CC(=O)[C@]2(O)[C@@]3(C)[C@@H](O)CCC(C)(C)[C@@H]3[C@H](OC(=O)C(C)N3CCOCC3)[C@H](O)[C@@]2(C)O1 (stereo partly drawn) | 20 | 11 | 45 | –
3 | 22 (≈ 44.6 µM) | C=C[C@@]1(C)CC(=O)[C@]2(O)[C@@]3(C)[C@@H](O)CCC(C)(C)[C@@H]3[C@H](O)[C@H](OC(=O)CN3CCCCC3)[C@@]2(C)O1 | 1 | 31 | 18 | –
4 | 3 (≈ 5.73 µM) | C=C[C@@]1(C)CC(=O)[C@]2(O)[C@@]3(C)[C@@H](O)CCC(C)(C)[C@@H]3[C@H](O)[C@H](OC(=O)CCCN3CCOCC3)[C@@]2(C)O1 | – | – | – | –
5 | 0.35 (≈ 0.706 µM) | C=C[C@@]1(C)CC(=O)[C@]2(O)[C@@]3(C)[C@@H](O)CCC(C)(C)[C@@H]3[C@H](O)[C@H](OC(=O)CN3CCOCC3)[C@@]2(C)O1 | 35 | 100 | 37 | –
6 | 0.5 (≈ 1.01 µM) | C=C[C@@]1(C)CC(=O)[C@]2(O)[C@@]3(C)[C@@H](O)CCC(C)(C)[C@@H]3[C@H](OC(=O)CN3CCOCC3)[C@H](O)[C@@]2(C)O1 | – | – | – | ED50 (Narkotisierter Hund): 0.11 mg/kg; activation at 0.03 mg [1, 2]: 34%; activation at 0.03 mg [1, 3]: 35%; activation at 0.03 mg [1, 4]: 23%
7 | 2.6 (≈ 5.12 µM) | C=C[C@@]1(C)CC(=O)[C@]2(O)[C@@]3(C)[C@@H](O)CCC(C)(C)[C@@H]3[C@H](OC(=O)CN3CCC(C)CC3)[C@H](O)[C@@]2(C)O1 | – | – | – | ED50 (Narkotisierter Hund): 0.39 mg/kg
8 | 1.8 (≈ 3.75 µM) | C=C[C@@]1(C)CC(=O)[C@]2(O)[C@@]3(C)[C@@H](O)CCC(C)(C)[C@@H]3[C@H](O)[C@H](OC(=O)CN3CCCC3)[C@@]2(C)O1 | 24 | 57 | 38 | ED50 (Narkotisierter Hund): 0.5 mg/kg
9 | 1.2 (≈ 1.96 µM) | C=C[C@@]1(C)CC(=O)[C@]2(O)[C@@]3(C)[C@@H](O)CCC(C)(C)[C@@H]3[C@H](OC(=O)CN3CCC(NC(=O)c4ccccc4)CC3)[C@H](O)[C@@]2(C)O1 | – | – | – | –
10 | 3 (≈ 6.26 µM) | C=C[C@@]1(C)CC(=O)[C@]2(O)[C@@]3(C)[C@@H](O)CCC(C)(C)[C@@H]3[C@H](OC(=O)CN3CCCC3)[C@H](O)[C@@]2(C)O1 | – | – | – | –
11 | 30 (≈ 58.6 µM) | C=C[C@@]1(C)CC(=O)[C@]2(O)[C@@]3(C)[C@@H](O)CCC(C)(C)[C@@H]3[C@H](O)[C@H](OC(=O)CN3CCSCC3)[C@@]2(C)O1 | – | – | – | –
12 | 1.5 (≈ 2.93 µM) | C=C[C@@]1(C)CC(=O)[C@]2(O)[C@@]3(C)[C@@H](O)CCC(C)(C)[C@@H]3[C@H](OC(=O)CN3CCSCC3)[C@H](O)[C@@]2(C)O1 | – | – | – | ED50 (Narkotisierter Hund): > 3 mg/kg
13 | 30 (≈ 59.1 µM) | C=C[C@@]1(C)CC(=O)[C@]2(O)[C@@]3(C)[C@@H](O)CCC(C)(C)[C@@H]3[C@H](O)[C@H](OC(=O)CN3CCCC(C)C3)[C@@]2(C)O1 (stereo partly drawn) | – | – | – | –
14 | > 3 | C=C[C@@]1(C)CC(=O)[C@]2(O)[C@@]3(C)[C@@H](O)CCC(C)(C)[C@@H]3[C@H](O)[C@H](OC(=O)CCN3C(=O)c4ccccc4C3=O)[C@@]2(C)O1 | – | – | – | –
